# Assay results as given in US9399646B2 (Genentech, Inc., priority 2010, dated 2016).
# pIC50: −log10 of the molar value.
# Legend:
# MCF-7 cells = assay: Breast cancer cell viability assay (CellTiter-Glo, 5 days); type: cell-based; conditions: 5 days' compound exposure; for pIC50: Homo sapiens, MCF7, 120 h
# Procedure, shortened: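 MCF-7 cells, 320 per well in RPMI with 10% FBS and 20 mM HEPES, adhered overnight, then exposed 5 days to an eleven-point semilog dilution (final 0.3-0.000003 μM). CellTiter-Glo luminescence read; % viability = (sample − cell-free background)/(untreated − background) × 100.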
# ER-α in MCF-7 cells = molecular target: T1, ER-α in MCF-7 cells (Homo sapiens, UniProt P03372); assay: Breast cancer cell ER-α in cell western assay (SP1); type: cell-based; parameters: endogenous in cells; host or cells: MCF-7; conditions: 4 or 24 hr post compound addition; for Emax: MCF7, SP1 antibody, read-out: ER-α In Cell Western Assay (SP1) Max Response; for DC50: SP1 antibody, read-out: ER-α In Cell Western Assay (SP1) IC50
# T1 sequence (P03372 1-595): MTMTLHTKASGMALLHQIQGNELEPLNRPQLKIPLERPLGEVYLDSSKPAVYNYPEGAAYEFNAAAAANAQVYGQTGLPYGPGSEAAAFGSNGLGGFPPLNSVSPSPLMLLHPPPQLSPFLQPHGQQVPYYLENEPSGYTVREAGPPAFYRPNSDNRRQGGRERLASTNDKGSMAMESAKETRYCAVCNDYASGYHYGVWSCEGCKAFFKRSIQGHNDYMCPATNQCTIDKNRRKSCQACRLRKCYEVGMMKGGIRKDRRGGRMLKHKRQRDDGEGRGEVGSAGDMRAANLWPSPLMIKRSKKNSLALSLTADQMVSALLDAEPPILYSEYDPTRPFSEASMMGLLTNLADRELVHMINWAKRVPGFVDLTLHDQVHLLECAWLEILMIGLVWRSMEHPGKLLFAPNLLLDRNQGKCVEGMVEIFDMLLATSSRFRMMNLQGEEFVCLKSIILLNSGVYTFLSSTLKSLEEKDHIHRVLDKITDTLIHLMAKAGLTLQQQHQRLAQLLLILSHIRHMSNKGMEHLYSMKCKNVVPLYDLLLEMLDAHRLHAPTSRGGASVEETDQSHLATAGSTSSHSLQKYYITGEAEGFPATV
# Procedure, shortened: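 ER-α protein levels were measured in MCF-7 cells after 4 or 24 hr compound exposure (final 0.3–0.000003 μM) in RPMI containing 10% charcoal-stripped FBS.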
pIC50 (MCF-7 cells),Emax (ER-α in MCF-7 cells),DC50 (ER-α in MCF-7 cells),Structure (SMILES),MCF7 Viability Assay Max Response (MCF-7 cells)
≥ 7.00,≥ 40%,≤ 100 nM,"CC/C(=C(/c1ccc(/C=C/C(=O)NO)cc1)c1ccc2[nH]ncc2c1)c1ccccc1 [Compound 418, (E)-3-(4-((E)-1-(1H-Indazol-5-yl)-2-phenylbut-1-en-1-yl)phenyl)-N-hydroxyacrylamide]",++ (++ = a single % value ≧ 40%)
< 7.00,≥ 40%,,"CC/C(=C(/c1ccc(/C=C/C(=O)O)cc1)c1ccc2cn[nH]c2c1)c1ccccc1 [Compound 5, (E)-3-(4-((E)-1-(1H-Indazol-6-yl)-2-phenylbut-1-en-1-yl)phenyl)acrylic acid]",++ (++ = a single % value ≧ 40%)
≥ 7.00,≥ 40%,≤ 100 nM,"CC/C(=C(/c1ccc(-c2cc(O)no2)cc1)c1ccc2[nH]ncc2c1)c1ccc(F)cc1Cl [Compound 333, (E)-5-(4-(2-(2-Chloro-4-fluorophenyl)-1-(1H-indazol-5-yl)but-1-en-1-yl)phenyl)isoxazol-3-ol]",++ (++ = a single % value ≧ 40%)
≥ 7.00,≥ 40%,≤ 100 nM,"CC/C(=C(/c1ccc(/C=C/C(=O)O)cc1)c1ccc2[nH]ncc2c1)c1csc(-c2ccccc2)c1 [Compound 271, (E)-3-(4-((E)-1-(1H-Indazol-5-yl)-2-(5-phenylthiophen-3-yl)but-1-en-1-yl)phenyl)acrylic acid]",++ (++ = a single % value ≧ 40%)
≥ 7.00,≥ 40%,≤ 100 nM,"CC/C(=C(/c1ccc(/C=C/C(=O)O)cc1)c1cccc2[nH]ncc12)c1ccccc1C [Compound 21, (E)-3-(4-((E)-1-(1H-Indazol-4-yl)-2-(o-tolyl)but-1-en-1-yl)phenyl)acrylic acid]",++ (++ = a single % value ≧ 40%)
≥ 7.00,≥ 40%,≤ 100 nM,"CC/C(=C(/c1ccc(/C=C/C(=O)NOC)cc1)c1ccc2[nH]ncc2c1)c1ccc(F)cc1Cl [Compound 421, (E)-3-(4-((E)-2-(2-Chloro-4-fluorophenyl)-1-(1H-indazol-5-yl)but-1-en-1-yl)phenyl)-N-methoxyacrylamide]",++ (++ = a single % value ≧ 40%)
< 7.00,< 40%,> 100 nM,"CC/C(=C(/c1ccc(/C=C/C(=O)O)cc1)c1ccc2[nH]ncc2c1)c1ccc(CC(=O)O)cc1 [Compound 328, (E)-3-(4-((E)-2-(4-(Carboxymethyl)phenyl)-1-(1H-indazol-5-yl)but-1-en-1-yl)phenyl)acrylic acid]",+ (+ = a single % value < 40%)
< 7.00,≥ 40%,> 100 nM,"CC/C(=C(/c1ccc(/C=C/C(=O)O)cc1)c1ccc2ccncc2c1)c1ccccc1 [Compound 168, (E)-3-(4-((E)-1-(Isoquinolin-7-yl)-2-phenylbut-1-en-1-yl)phenyl)acrylic acid]",++ (++ = a single % value ≧ 40%)
≥ 7.00,≥ 40%,≤ 100 nM,"CC/C(=C(/c1ccc(/C=C/C(=O)NS(=O)(=O)Cc2ccccc2)cc1)c1ccc2[nH]ncc2c1)c1ccc(F)cc1Cl [Compound 429, (E)-N-(Benzylsulfonyl)-3-(4-((E)-2-(2-chloro-4-fluorophenyl)-1-(1H-indazol-5-yl)but-1-en-1-yl)phenyl)acrylamide]",++ (++ = a single % value ≧ 40%)
≥ 7.00,≥ 40%,≤ 100 nM,"CC/C(=C(/c1ccc(/C=C/C(=O)O)cc1)c1cc(F)c2[nH]ccc2c1)c1ccc(Cl)cc1Cl [Compound 253, (E)-3-(4-((E)-2-(2,4-Dichlorophenyl)-1-(7-fluoro-1H-indol-5-yl)but-1-en-1-yl)phenyl)acrylic acid]",++ (++ = a single % value ≧ 40%)
< 7.00,≥ 40%,> 100 nM,"CC/C(=C(/c1ccc(/C=C/C(=O)O)cc1)c1ccn2nncc2c1)c1ccccc1 [Compound 138, (E)-3-(4-((E)-1-([1,2,3]Triazolo[1,5-a]pyridin-5-yl)-2-phenylbut-1-en-1-yl)phenyl)acrylic acid]",+ (+ = a single % value < 40%)
< 7.00,≥ 40%,> 100 nM,"CC/C(=C(/c1ccc(/C=C/C(=O)O)cc1)c1ccc2nsnc2c1)c1ccccc1 [Compound 144, (E)-3-(4-((E)-1-(Benzo[c][1,2,5]thiadiazol-5-yl)-2-phenylbut-1-en-1-yl)phenyl)acrylic acid]",++ (++ = a single % value ≧ 40%)
< 7.00,< 40%,> 100 nM,"CC/C(=C(/c1ccc(/C=C/C(=O)O)cc1)c1ccc2[nH]ncc2c1)c1ccc2nccn2c1 [Compound 260, (E)-3-(4-((E)-2-(Imidazo[1,2-a]pyridin-6-yl)-1-(1H-indazol-5-yl)but-1-en-1-yl)phenyl)acrylic acid]",+ (+ = a single % value < 40%)
≥ 7.00,≥ 40%,≤ 100 nM,"CC/C(=C(/c1ccc(/C=C/C(=O)O)cc1)c1ccc2[nH]ncc2c1)c1ccc2c(c1)OCO2 [Compound 240, (E)-3-(4-((E)-2-(Benzo[d][1,3]dioxol-5-yl)-1-(1H-indazol-5-yl)but-1-en-1-yl)phenyl)acrylic acid]",++ (++ = a single % value ≧ 40%)
< 7.00,≥ 40%,,"CC/C(=C(/c1ccc(/C=C/C(=O)O)cc1)c1ccc2[nH]ncc2c1)c1cccnc1C [Compound 217, (E)-3-(4-((E)-1-(1H-Indazol-5-yl)-2-(2-methylpyridin-3-yl)but-1-en-1-yl)phenyl)acrylic acid]",++ (++ = a single % value ≧ 40%)
< 7.00,≥ 40%,> 100 nM,"CC/C(=C(/c1ccc(/C=C/C(=O)O)cc1)c1ccc2[nH]ncc2c1)c1cccc(OCCCC(=O)O)c1 [Compound 351, 4-(3-((E)-1-(4-((E)-2-Carboxyvinyl)phenyl)-1-(1H-indazol-5-yl)but-1-en-2-yl)phenoxy)butanoic acid]",+ (+ = a single % value < 40%)
< 7.00,≥ 40%,> 100 nM,"CC/C(=C(/c1ccc(/C=C/C(=O)O)cc1)c1cc2cn[nH]c2cn1)c1ccccc1 [Compound 81, (E)-3-(4-((E)-2-Phenyl-1-(1H-pyrazolo[3,4-c]pyridin-5-yl)but-1-en-1-yl)phenyl)acrylic acid]",++ (++ = a single % value ≧ 40%)
< 7.00,≥ 40%,> 100 nM,"CC/C(=C(/c1ccc(/C=C/C(=O)O)cc1)c1ccc2[nH]ncc2c1)c1ccccc1-c1ccccc1 [Compound 28, (E)-3-(4-((E)-2-([1,1′-Biphenyl]-2-yl)-1-(1H-indazol-5-yl)but-1-en-1-yl)phenyl)acrylic acid]",++ (++ = a single % value ≧ 40%)
< 7.00,≥ 40%,> 100 nM,CC/C(=C(/c1ccc(/C=C/C(=O)O)cc1)c1ccc2ocnc2c1)c1ccccc1 [Compound 146],++ (++ = a single % value ≧ 40%)
≥ 7.00,≥ 40%,≤ 100 nM,"CC/C(=C(/c1ccc(/C=C/C(=O)O)cc1)c1ccc2scnc2c1)c1ccc(F)cc1Cl [Compound 275, (E)-3-(4-((E)-1-(Benzo[d]thiazol-5-yl)-2-(2-chloro-4-fluorophenyl)but-1-en-1-yl)phenyl)acrylic acid]",++ (++ = a single % value ≧ 40%)
≥ 7.00,≥ 40%,≤ 100 nM,"CC/C(=C(/c1ccc(/C=C/C(=O)O)cc1)c1ccc2[nH]ncc2c1F)c1ccc(Oc2cnccn2)cc1 [Compound 161, (E)-3-(4-((E)-1-(4-Fluoro-1H-indazol-5-yl)-2-(4-(pyrazin-2-yloxy)phenyl)but-1-en-1-yl)phenyl)acrylic acid]",++ (++ = a single % value ≧ 40%)
≥ 7.00,≥ 40%,≤ 100 nM,"CC/C(=C(/c1ccc(/C=C/C(=O)O)cc1)c1ccc2[nH]ncc2c1)c1ccc(Oc2ccncc2)cc1 [Compound 315, (E)-3-(4-((E)-1-(1H-Indazol-5-yl)-2-(4-(pyridin-4-yloxy)phenyl)but-1-en-1-yl)phenyl)acrylic acid]",++ (++ = a single % value ≧ 40%)
